Assay results from US20110112308A1 (NOVARTIS AG, priority 2006, published 2011).
≈ marks a conversion by molar mass, not a printed value.

Columns and labels:
Assay type in all cases: physicochemical
[1] = Solution stability (HPLC); conditions: for stability characteristics, in words: both in solution and in the solid state; for Unstressed (% Area): unstressed baseline of the stability study
Procedure: (§1) All samples were prepared/diluted to a concentration of 0.2 mg/mL in methanol prior to analysis by HPLC. A freshly prepared sample of each salt was used as the reference standard for external standard calibration analysis.

[2] = Solid-state stability; conditions: for Bulk stability (XRPD): 1 week
Procedure: as §1

[3] = Intrinsic dissolution rate, rotation disk method; conditions: for Intrinsic Dissolution Rate: 37° C., 200 r.p.m.
Procedure: Intrinsic Dissolution: […] […] Pellets of the other salts remained intact for at least several minutes enabling the determination of the intrinsic dissolution rate. Dissolution rate studies were performed using the rotation disk method ([…] Instrument). A single rotation speed of 200 r.p.m. was used to dissolve drug substance into a 500 mL vessel at 37° C. The solution was continuously pumped through a UV cell measurement and returned to the dissolution vessel.

[4] = pH of saturated solution or 1% suspension in water; conditions: In pH = 6.8 buffer
[5] = pH of saturated solution or 1% suspension in water; conditions: room temperature
Procedure: pH Value: The pH at room temperature of a saturated solution or 1% suspension of the drug substance in water was recorded.

[6] = Solubility, 24-hour equilibration at room temperature; conditions: for solubility at 24 h: organic solvent or mixture, thermodynamic from solid
Procedure: Aqueous Solubility: A carefully weighted amount (20-50 mg) of sample is dissolved in 1 ml of solvent with 24-hour equilibration at room temperature. The solubility was determined either gravimetrically or by UV-VIS spectrometry. The pH of the clear solution was also measured. However, the difficulty of determining salt solubilities in water should be stressed, since upon dissolution dissociation to the free form is possible, which affects both the solubility and the pH. It's not unlikely that attempts to make solutions of a salt at a concentration well below the reported solubility of the salt to be unsuccessful (for a full discussion see: M. Pudipeddi, A. T. M. Serajuddin, D. J. W. Grant, and P. H. Stahl in “Handbook of Pharmaceutical Salts Properties Selection and Use” page 27 and references therein).

[7] = Stability of mixtures with excipients; conditions: for stability with all excipient mixtures tested, in words: after 2 weeks at 50° C./75% r.h.
Procedure: as §1

[8] = 2 mg/mL in 100 mM lactate buffer, pH 3.5
[9] = 2 mg/mL in methanol, 1 week at 50° C.
[10] = 2 mg/mL in water, 1 week at 50° C.
[11] = 2 mg/mL, 100 mM lactate buffer pH 3.5, 1 week at 50° C.
[12] = 2 mg/mL, 100 mM lactate buffer pH 3.5, 1 week at 50° C., external standard
[13] = 2% in 0.5% HPMC 4000, 1 day at RT
[14] = 2% in 0.5% Klucel HF, 1 day at RT
[15] = 2% in 0.8% Tween 80, 1 day at RT
[16] = 5% solution, 1 day at RT (diluted 1:100 in pH 6.8 buffer)
[17] = Bulk stability, 2 weeks, 50° C.
[18] = Bulk stability, 2 weeks, 50° C./20% water
[19] = Bulk stability, 2 weeks, 50° C./75% r.h.
[20] = Light study, 1200 kLux (300-800 nm)
[21] = Water, free base pellet disintegrated, not true intrinsic rate
[22] = Mixture 1: 50% PVP + 50% Crospovidone, 50° C./75% r.h., 2 weeks
[23] = Mixture 2: 50% Starch 1500 + 5% MCC 102, 50° C./75% r.h., 2 weeks
[24] = Mixture 3: 5% PVP + 5% Crospovidone + 10% Starch 1500 + 80% MCC 102, 50° C./75% r.h., 2 weeks
[25] = Mixture 4: 99% Lactose + 1% BHT/BHA, 50° C./75% r.h., 2 weeks
[26] = Mixture 5: 99% Mannitol + 1% BHT/BHA, 50° C./75% r.h., 2 weeks
[27] = Mixture 6: 50% Mannitol + 47% HPCLH21 + 1% BHT/BHA + 2% Magnesium Stearate, 50° C./75% r.h., 2 weeks
[28] = Mixture 7: 50% Cetyl Alcohol + 49% HPCLH21 + 1% Magnesium Stearate, 50° C./75% r.h., 2 weeks
[29] = Mixture 8: 100% PEG 3350, 50° C./75% r.h., 2 weeks

SMILES: Cc1[nH]c2ccccc2c1CCNCc1ccc(/C=C/C(=O)NO)cc1.O=C(O)/C=C\C(=O)O [Maleate, 1:1 maleate salt of N-hydroxy-3-[4-[[[2-(2-methyl-1H-indol-3-yl)ethyl]amino]methyl]phenyl]-2E-2-propenamide]
- pH of initial mixture [1, 8]: 3.51
- % DP (total degradation products) [1, 9]: 0.83 % area
- assay [1, 9]: [100.7]
- pH of initial mixture ([1]; 2 mg/mL in water): 5.40
- % DP (total degradation products) [1, 10]: 0.80 % area
- CL (appearance) [1, 10]: A↓
- assay [1, 10]: [97.26]
- % DP (total degradation products) [1, 11]: 1.59 % area
- CL (appearance) [1, 11]: A↓*
- assay [1, 12]: [97.48]
- % DP (total degradation products) ([1]; 2% in 0.5% CMC, 1 day at RT): 0.58 % area
- CL (appearance) ([1]; 2% in 0.5% CMC, 1 day at RT): A↓↓
- assay ([1]; 2% in 0.5% CMC, 1 day at RT): [77.42]
- % DP (total degradation products) [1, 13]: 0.60 % area
- assay [1, 13]: [94.63]
- % DP (total degradation products) [1, 14]: 0.55 % area
- assay [1, 14]: [96.78]
- % DP (total degradation products) [1, 15]: 0.66 % area
- assay [1, 15]: [96.83]
- % DP (total degradation products) [1, 16]: 0.67 % area
- CL (appearance) [1, 16]: A↓
- assay [1, 16]: [97.92]
- stability characteristics, in words [1]: very good stability
- Unstressed (% Area) [1]: 99.48% Area
- Bulk stability (XRPD) ([2]; 80° C.): no change
- Bulk stability (XRPD) ([2]; 80° C./75% r.h.): no change
- % DP (total degradation products) [2, 17]: 0.71 % area
- assay [2, 17]: [102.2]
- % DP (total degradation products) [2, 18]: 0.71 % area
- assay [2, 18]: [101.1]
- % DP (total degradation products) [2, 19]: 0.58 % area
- assay [2, 19]: [100.0]
- % DP (total degradation products) [2, 20]: 3.02 % area
- CL (appearance) [2, 20]: D (D = strong discoloration)
- assay [2, 20]: [96.72]
- intrinsic dissolution (rate), in words [3]: good
- Intrinsic Dissolution Rate ([3]; HCl 0.1N): 1.00 mg min^−1 cm^−2
- Intrinsic Dissolution Rate [3, 21]: 0.32 mg min^−1 cm^−2
- pH of saturated solution [4]: 5.70
- pH of saturated solution [5]: 5.54
- aqueous solubility [6]: 2600 µg/mL
- solubility in methanol and ethanol, in words [6]: high
- solubility in other common / remaining organic solvents, in words [6]: considerable
- Solubility ([6]; 0.1N HCl, approx. at 25° C.): 700 µg/mL
- Solubility ([6]; 2-Propanol, approx. at 25° C.): 1600 µg/mL
- Solubility ([6]; Acetone, approx. at 25° C.): 3000 µg/mL
- Solubility ([6]; Ethanol, approx. at 25° C.): 7200 µg/mL
- Solubility ([6]; Ethyl acetate, approx. at 25° C.): 5600 µg/mL
- Solubility ([6]; Methanol, approx. at 25° C.): 57000 µg/mL
- Solubility ([6]; Propylene glycol, approx. at 25° C.): 32400 µg/mL
- Solubility ([6]; Water, approx. at 25° C.): 2600 µg/mL
- approximate solubility in water as % ([6]; estimated from mg/mL assuming solution density 1 g/mL): approximately 0.3%
- Solubility ([6]; pH = 6.8 buffer, approx. at 25° C.): 1500 µg/mL
- % DP (total degradation products) [7, 22]: 0.5 % area
- % DS (drug substance) [7, 22]: 99.5 % area
- % DP (total degradation products) [7, 23]: 0.3 % area
- % DS (drug substance) [7, 23]: 99.7 % area
- % DP (total degradation products) [7, 24]: 0.3 % area
- % DS (drug substance) [7, 24]: 99.7 % area
- % DP (total degradation products) [7, 25]: 0.3 % area
- % DS (drug substance) [7, 25]: 99.7 % area
- % DP (total degradation products) [7, 26]: 0.3 % area
- % DS (drug substance) [7, 26]: 99.7 % area
- % DP (total degradation products) [7, 27]: 0.3 % area
- % DS (drug substance) [7, 27]: 99.7 % area
- % DP (total degradation products) [7, 28]: 0.3 % area
- % DS (drug substance) [7, 28]: 99.7 % area
- % DP (total degradation products) [7, 29]: 0.4 % area
- % DS (drug substance) [7, 29]: 99.6 % area
- % DP (total degradation products) ([7]; Standard, freshly prepared): 0.2 % area
- % DS (drug substance) ([7]; Standard, freshly prepared): 99.8 % area
- stability with all excipient mixtures tested, in words [7]: very good stability

SMILES: Cc1[nH]c2ccccc2c1CCNCc1ccc(/C=C/C(=O)NO)cc1 [Free base, N-hydroxy-3-[4-[[[2-(2-methyl-1H-indol-3-yl)ethyl]amino]methyl]phenyl]-2E-2-propenamide]
- pH of initial mixture [1, 8]: 3.60
- assay [1, 9]: [100.2]
- pH of initial mixture ([1]; 2 mg/mL in water): 9.59
- CL (appearance) [1, 10]: A↓
- assay [1, 10]: [98.73]
- assay [1, 12]: [97.21]
- assay ([1]; 2% in 0.5% CMC, 1 day at RT): [98.07]
- assay [1, 13]: [100.4]
- assay [1, 14]: [99.28]
- assay [1, 15]: [98.91]
- CL (appearance) [1, 16]: A↓
- assay [1, 16]: [100.4]
- stability characteristics, in words [1]: very good stability
- Unstressed (% Area) [1]: 99.41% Area
- Bulk stability (XRPD) ([2]; 80° C.): Changed to mod. C
- Bulk stability (XRPD) ([2]; 80° C./75% r.h.): no change
- assay [2, 17]: [97.76]
- assay [2, 18]: [99.48]
- assay [2, 19]: [98.61]
- CL (appearance) [2, 20]: B (B = slight discoloration)
- assay [2, 20]: [99.39]
- Intrinsic Dissolution Rate [3, 21]: 0.15 mg min^−1 cm^−2
- pH of saturated solution [4]: 6.91
- pH of saturated solution [5]: 8.7
- solubility at 24 h ([6]; ethyl acetate, 25 °C): 5600 µg/mL (≈ 16 mM)
- solubility at 24 h ([6]; Acetone, approx. at 25° C.): 6500 µg/mL (≈ 18.6 mM)
- solubility at 24 h ([6]; Ethanol, approx. at 25° C.): 1500 µg/mL (≈ 4.29 mM)
- solubility at 24 h ([6]; Methanol, approx. at 25° C.): 2300 µg/mL (≈ 6.58 mM)
- % DS (drug substance) [7, 22]: 98.8 % area
- % DS (drug substance) [7, 23]: 99.4 % area
- % DS (drug substance) [7, 24]: 99.3 % area
- % DS (drug substance) [7, 25]: 99.4 % area
- % DS (drug substance) [7, 26]: 99.2 % area
- % DS (drug substance) [7, 27]: 99.4 % area
- % DS (drug substance) [7, 28]: 99.5 % area
- % DS (drug substance) [7, 29]: 98.6 % area
- % DS (drug substance) ([7]; Standard, freshly prepared): 99.5 % area
- stability with all excipient mixtures tested, in words [7]: very good stability
